Measured values reported in article PMC7377474, “Preclinical characterization of CPL302-253, a selective inhibitor of PI3Kδ, as the candidate for the inhalatory treatment and prevention of Asthma” (PLoS ONE, 2020).
Values joined by “and” are separate entries in the source; they are usually repeats but may differ in a detail not shown here. Identical values can stand only once.

Assays:
PI3Kδ [1] = molecular target: T1, PI3Kδ (Homo sapiens, UniProt O00329); assay: KINOMEScan competitive binding assay, Kd
T1 construct: purchased Discoverex (KINOMEscan service)
Description: (§1) The inhibitor-kinase binding affinity was assessed in KINOMEscan™ assay (Discoverex) according to service provider’s protocol. In brief, in this binding assay the studied compound in solution is incubated with DNA-tagged kinase and kinase active-site directed ligand bound to the beads. The compound competes for binding to kinase with the immobilized ligand. After incubation beads are removed from the solution and kinase bound to ligand is quantified by qPCR. The strength of compound binding is determined based on its ability to block kinase-ligand binding. 11-point 3-fold serial dilution of CPL302-253 was used in order to determine its binding constants (Kd) against different isotypes of class I PI3K. The single concentration of CPL302-253 was used in order to determine its specificity in abroad panel of 468 human kinases. The measure of compounds affinity to each kinase in the panel was the percentage of kinase activity inhibition by tested ligand in comparison to the control.
T1 sequence (O00329 whole entry): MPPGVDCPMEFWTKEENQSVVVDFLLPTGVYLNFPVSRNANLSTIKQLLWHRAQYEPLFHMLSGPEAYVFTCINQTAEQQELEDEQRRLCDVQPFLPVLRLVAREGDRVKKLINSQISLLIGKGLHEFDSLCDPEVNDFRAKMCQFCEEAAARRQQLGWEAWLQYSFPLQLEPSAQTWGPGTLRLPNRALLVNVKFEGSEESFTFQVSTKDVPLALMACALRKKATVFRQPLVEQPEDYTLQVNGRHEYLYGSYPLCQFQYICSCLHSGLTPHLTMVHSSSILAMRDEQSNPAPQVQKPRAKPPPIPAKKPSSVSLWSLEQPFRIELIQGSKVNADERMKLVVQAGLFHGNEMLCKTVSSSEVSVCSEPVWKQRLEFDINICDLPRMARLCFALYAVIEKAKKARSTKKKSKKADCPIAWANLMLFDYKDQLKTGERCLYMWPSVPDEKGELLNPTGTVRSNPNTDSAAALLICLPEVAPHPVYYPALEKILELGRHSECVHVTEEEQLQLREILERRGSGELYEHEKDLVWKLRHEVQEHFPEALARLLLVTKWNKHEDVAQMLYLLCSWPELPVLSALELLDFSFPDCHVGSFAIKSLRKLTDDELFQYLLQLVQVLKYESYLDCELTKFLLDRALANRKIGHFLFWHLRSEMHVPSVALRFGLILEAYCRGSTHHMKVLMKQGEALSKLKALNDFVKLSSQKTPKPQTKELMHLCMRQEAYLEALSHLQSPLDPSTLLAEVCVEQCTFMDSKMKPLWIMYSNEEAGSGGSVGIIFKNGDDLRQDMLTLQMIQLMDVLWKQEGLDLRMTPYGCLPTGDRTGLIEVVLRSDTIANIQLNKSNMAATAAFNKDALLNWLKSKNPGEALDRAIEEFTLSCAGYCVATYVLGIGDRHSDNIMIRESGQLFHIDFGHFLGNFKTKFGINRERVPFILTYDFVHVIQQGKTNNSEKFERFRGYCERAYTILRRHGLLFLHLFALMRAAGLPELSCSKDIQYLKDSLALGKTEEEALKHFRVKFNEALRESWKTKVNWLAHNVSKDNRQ

PI3Kδ [2] = molecular target: T2, PI3Kδ (Homo sapiens, UniProt O00329); assay: ADP-Glo Kinase Assay; assay type: biochemical
T2 construct: purchased Merck Millipore
Description: The potency and selectivity of CPL302-253 against different isotypes of class I PI3K were assessed using ADP-Glo Kinase Assay (Promega) according to manufacturer’s protocol. PI3Kα, PI3Kβ, PI3Kδ, PI3Kγ were purchased from Merck Millipore. The inhibition of examined kinases activity was evaluated by measuring their ability to converse ATP to ADP in the presence of decreasing doses of tested compound (from 400 μM to 0,00004 μM). Kinases were mixed with 1 mM PIP2:PS substrate (Phosphoinositol-4,5-bisphosphate (PIP2) lipid vesicles with phosphoserine (PS), Thermofisher Scientific) and 30 μM ATP in an assay buffer (50 mM HEPES pH 7.5,50 mM NaCl, 3 mM MgCl2, 25 μg/ml BSA). The mixture was incubated in the dark for 1 h at 25°C (PI3Kα and PI3Kδ) or at 30°C (PI3Kβ, PI3Kγ). Next ADP-Glo reagent 1 was added to stop the reaction and remove any remaining ATP. The samples were incubated for 40 min at 25°C. Subsequently the ADP-Glo reagent 2 was added and reactions were incubated for 40 min at 25°C. Finally, luminescence was assessed and the IC50 was calculated.
T2 sequence (O00329 whole entry): as above
T2 sequence (P27986 whole entry partner): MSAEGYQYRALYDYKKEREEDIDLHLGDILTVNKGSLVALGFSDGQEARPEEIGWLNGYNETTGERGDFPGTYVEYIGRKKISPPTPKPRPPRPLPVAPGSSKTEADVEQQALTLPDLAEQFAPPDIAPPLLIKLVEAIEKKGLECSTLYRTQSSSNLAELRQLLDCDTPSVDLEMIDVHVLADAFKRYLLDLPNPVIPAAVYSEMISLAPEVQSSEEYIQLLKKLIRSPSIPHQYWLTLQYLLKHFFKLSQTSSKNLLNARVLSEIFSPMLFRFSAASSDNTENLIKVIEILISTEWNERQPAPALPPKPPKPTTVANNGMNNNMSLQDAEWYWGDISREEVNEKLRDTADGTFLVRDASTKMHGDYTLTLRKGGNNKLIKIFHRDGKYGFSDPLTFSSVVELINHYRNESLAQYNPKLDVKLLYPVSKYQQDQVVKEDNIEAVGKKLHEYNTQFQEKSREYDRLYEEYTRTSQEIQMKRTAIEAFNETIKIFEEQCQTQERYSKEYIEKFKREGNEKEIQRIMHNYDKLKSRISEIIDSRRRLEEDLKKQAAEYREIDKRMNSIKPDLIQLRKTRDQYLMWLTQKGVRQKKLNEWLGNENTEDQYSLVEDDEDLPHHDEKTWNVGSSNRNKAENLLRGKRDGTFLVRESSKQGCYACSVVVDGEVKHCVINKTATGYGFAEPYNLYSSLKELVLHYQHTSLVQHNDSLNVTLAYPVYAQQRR

[3] = tested on: panel of 468 human kinases; assay: KINOMEScan broad panel; assay type: binding; conditions: 1 μM
Description: as §1

[4] = tested on: CD19 B cells and PBMC stimulated with αIgM and TCR ligands; assay: BioMAP profiling, BT system; assay type: cell-based, human
Description: BioMap Profiling study was performed by DiscovereX according to service provider’s protocol. In brief cultures or co-cultures of human primary cells were treated with sets of stimulators specific for cell subsets. […] The expression of biomarkers specific for each system was measured by ELISA and other techniques. The results are shown as log-transformed ratio of the biomarker readouts for the drug-treated sample to vehicle controls. The grey area parallel to the x-axis indicates the 95% significance region calculated based on historical vehicle controls. […]

neutrophils = assay: Neutrophils IL-8 production; assay type: cell-based, human; conditions: 6 h, 1 μM
Description: Neutrophils were isolated using EasySep Direct Human Neutrophil Isolation Kit (StemCell Technologies) from fresh whole blood of healthy donors by magnetic bead isolation according to manufacturer’s protocol. The cells were cultured in AIM V medium (Gibco). After 30 min pre-treatment with CPL302-253 (1 μM) neutrophils were stimulated with Cigarette Smoke Extract (CSE) (Murty Laboratories) at 100 μg/ml or LPS from E. coli O55:B5 (Sigma-Aldrich) at 1 μg/ml. After 6 h of incubation the culture supernatants were collected and IL-8 production was measured using IL-8 Human Uncoated ELISA Kit (Invitrogen) according to manufacturer’s protocol

hERG = molecular target: T3, hERG (Homo sapiens, UniProt Q12809); assay type: cell-based; conditions: 10 μM
T3 construct: purchased DiscoverX (Eurofins) SafetyScan44
Description: SafetyScan44 assay was performed by DiscoverX according to service provider’s protocol.

T3 sequence (Q12809 whole entry): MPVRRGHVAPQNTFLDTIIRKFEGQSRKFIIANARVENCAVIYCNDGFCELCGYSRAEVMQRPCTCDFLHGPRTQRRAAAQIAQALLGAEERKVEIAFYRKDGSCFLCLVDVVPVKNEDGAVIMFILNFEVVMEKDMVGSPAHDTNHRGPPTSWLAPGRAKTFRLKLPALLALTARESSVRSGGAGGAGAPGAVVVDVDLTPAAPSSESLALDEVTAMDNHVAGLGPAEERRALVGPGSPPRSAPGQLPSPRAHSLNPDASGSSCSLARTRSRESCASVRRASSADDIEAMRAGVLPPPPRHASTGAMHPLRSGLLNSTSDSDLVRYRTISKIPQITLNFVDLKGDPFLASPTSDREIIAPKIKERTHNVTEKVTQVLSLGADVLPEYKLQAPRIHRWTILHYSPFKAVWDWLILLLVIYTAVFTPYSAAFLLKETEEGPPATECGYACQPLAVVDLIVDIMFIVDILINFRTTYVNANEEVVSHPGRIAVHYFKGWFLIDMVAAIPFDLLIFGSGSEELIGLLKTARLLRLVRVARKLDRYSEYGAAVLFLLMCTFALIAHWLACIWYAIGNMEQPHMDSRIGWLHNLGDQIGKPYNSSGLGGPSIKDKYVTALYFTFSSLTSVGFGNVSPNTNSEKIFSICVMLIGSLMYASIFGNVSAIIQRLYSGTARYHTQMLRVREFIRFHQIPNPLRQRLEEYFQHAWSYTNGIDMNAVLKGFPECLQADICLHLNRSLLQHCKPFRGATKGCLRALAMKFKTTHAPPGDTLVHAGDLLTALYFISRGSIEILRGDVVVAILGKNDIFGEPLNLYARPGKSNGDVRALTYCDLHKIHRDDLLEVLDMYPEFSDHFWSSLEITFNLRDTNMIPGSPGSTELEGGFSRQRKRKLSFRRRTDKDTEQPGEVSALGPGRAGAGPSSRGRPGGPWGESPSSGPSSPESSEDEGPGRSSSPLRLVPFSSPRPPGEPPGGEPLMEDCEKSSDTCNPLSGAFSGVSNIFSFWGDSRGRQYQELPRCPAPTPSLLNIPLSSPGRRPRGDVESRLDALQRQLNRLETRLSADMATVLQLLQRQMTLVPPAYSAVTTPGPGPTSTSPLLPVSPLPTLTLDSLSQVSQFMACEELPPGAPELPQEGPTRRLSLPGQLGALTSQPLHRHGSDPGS

CC(C)(C)N1CCN(Cc2cc3nc(-c4cncc5[nH]ccc45)cc(N4CCOCC4)n3n2)CC1 [CPL302-253]
Kd (PI3Kδ [1]): 0.85 nM | IC50 (PI3Kδ [2]): 12.2 nM | inhibition of binding to specific substrate, kinases other than members of PI3K [3]: ≤ 70% | expression of IL-2, IL-6, IL-17 and TNFα in BT system [4]: inhibits the expression of all of listed markers in BT system | proliferation of B cells [4]: blocked proliferation of B cells | IL-8 release (Fig 4B), single replicates (neutrophils; 1 μg/ml LPS): 471 and 860 and 464 | IL-8 release (Fig 4A), single replicates (neutrophils; 100 μg/ml CSE): 378 and 136 and 362 | IL-8 production by neutrophils (neutrophils; after CSE or LPS stimulation): reduced IL-8 production | % Response hERG Blocker (hERG): -2.7%
